Test systems include SK-MEL-28; KM12; NCI-H23; SNB-19; CCRF-CEM; 786-0; SNB-75; SW-620; SF-295; Malme-3M; U-251; HCC 2998; CAKI-1; SF-268; MDA-MB-435; LOX IMVI; DU-145; BT-549.
Common to all, as to experiment: DTP human tumour cell line panel, 48 h

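Method: 48-hour compound exposure of cells in 96-well plates, five concentrations, linear interpolation of endpoints. GI50 = concentration required for 50% inhibition of growth.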 Calls of active or inactive are those of the source. Cut-off read from the data, not from the text of the source: active = GI50 up to about 1.1 µM and inactive = higher.

In the case of `CN(C)Cc1[nH]c2ccccc2c1C(=O)c1ccccc1`, the GI50 in the experiment on SK-MEL-28, in the experiment on KM12, in the experiment with NCI-H23, with SNB-19, with CCRF-CEM and with 786-0 was > 100 µM (inactive) each time. The GI50 (in general, the concentration at which growth is held to half of that of the control) is 21.9 µM (inactive) with SNB-75; > 100 µM (inactive) with SW-620; > 100 µM (inactive) in the experiment on SF-295; > 100 µM (inactive) in the experiment on Malme-3M; > 100 µM (inactive) in the experiment with U-251; 99.1 µM (inactive) in the experiment on HCC 2998. For the same compound, the GI50 in the experiment on CAKI-1 and in the experiment with SF-268 was > 100 µM (inactive) throughout.

`CC(Cc1ccc(O)cn1)(NC(=O)c1ccccc1)C(=O)O` (configuration not stated): the GI50 in the experiment on SK-MEL-28, with KM12, in the experiment on NCI-H23, in the experiment with SNB-19, in the experiment on CCRF-CEM and with 786-0 was > 100 µM (inactive) each time. Further, the GI50 with MDA-MB-435 is > 100 µM (inactive); in the experiment on SNB-75, 40.4 µM (inactive); in the experiment with SW-620, > 100 µM (inactive); with SF-295, > 100 µM (inactive); in the experiment on LOX IMVI, > 100 µM (inactive); in the experiment with Malme-3M it was > 100 µM (inactive). Further, the GI50 in the experiment with DU-145, in the experiment with BT-549, in the experiment with U-251, in the experiment with HCC 2998, in the experiment with CAKI-1 and in the experiment with SF-268 was > 100 µM (inactive) each time.

Consider `CCC(=O)OCN1C(=O)C=CC1=O`, for which the GI50 in the experiment with SK-MEL-28 was 18.6 µM (inactive); in the experiment on KM12 it was 16.7 µM (inactive); in the experiment on NCI-H23, 18 µM (inactive); in the experiment on SNB-19 it was 18.5 µM (inactive); with CCRF-CEM, 0.445 µM (active); in the experiment on 786-0, 5.38 µM (inactive). Also, the GI50 in the experiment with MDA-MB-435 is 15.2 µM (inactive); with SW-620, 2.01 µM (inactive); in the experiment on SF-295, > 44.7 µM (inactive); in the experiment with LOX IMVI, 18.5 µM (inactive); in the experiment with Malme-3M it was 13.8 µM (inactive); with DU-145 it was 16.6 µM (inactive). The GI50 was 18.5 µM (inactive) in the experiment with BT-549; 17.6 µM (inactive) in the experiment on U-251; 18.6 µM (inactive) in the experiment on HCC 2998; 5.08 µM (inactive) in the experiment on CAKI-1; 17.1 µM (inactive) in the experiment on SF-268.

`COc1cccc(C=C(C#N)C#N)c1OC`: the GI50 in the experiment on SK-MEL-28 is > 100 µM (inactive); in the experiment with KM12, > 100 µM (inactive); with NCI-H23, > 100 µM (inactive); with SNB-19, > 100 µM (inactive); in the experiment with CCRF-CEM, 83.6 µM (inactive); in the experiment on 786-0 it was > 100 µM (inactive). In addition, the GI50 was 43.2 µM (inactive) with SNB-75; > 100 µM (inactive) in the experiment on SW-620; > 100 µM (inactive) in the experiment with SF-295; > 100 µM (inactive) with Malme-3M; > 100 µM (inactive) in the experiment on DU-145; > 100 µM (inactive) in the experiment with BT-549. Moreover, the GI50 with U-251, in the experiment on HCC 2998, in the experiment with CAKI-1 and in the experiment on SF-268 was > 100 µM (inactive) each time.

Regarding `C(=C\c1ccco1)/c1cccc(/C=C/c2ccco2)n1`, the GI50 in the experiment with SK-MEL-28, with KM12, in the experiment with NCI-H23, in the experiment on SNB-19, in the experiment with CCRF-CEM and in the experiment on 786-0 was > 50 µM (inactive) each time. For the same compound, the GI50 was > 50 µM (inactive) with MDA-MB-435; 13.2 µM (inactive) with SNB-75; > 50 µM (inactive) in the experiment with SW-620; > 50 µM (inactive) in the experiment with SF-295; > 50 µM (inactive) in the experiment with LOX IMVI; > 50 µM (inactive) with Malme-3M. Besides, the GI50 in the experiment on DU-145, in the experiment with BT-549, with HCC 2998, in the experiment on CAKI-1 and in the experiment with SF-268 was > 50 µM (inactive) each time.

Turning to `O=C(c1nsc(Cl)c1Cl)N1CCCCC1`, the GI50 with SK-MEL-28 is > 100 µM (inactive); with KM12 it was > 100 µM (inactive); in the experiment with NCI-H23, > 100 µM (inactive); in the experiment on SNB-19, 82.8 µM (inactive); in the experiment on CCRF-CEM it was > 100 µM (inactive); in the experiment with 786-0, > 100 µM (inactive). In addition, the GI50 with MDA-MB-435, in the experiment with SNB-75, in the experiment on SW-620, in the experiment with SF-295, with LOX IMVI and in the experiment on Malme-3M was > 100 µM (inactive) each time. The GI50 in the experiment with DU-145, with BT-549, in the experiment on U-251, in the experiment with HCC 2998, in the experiment on CAKI-1 and with SF-268 was > 100 µM (inactive) throughout.

Consider `CCOC(=O)/C(=C\NC(C)(C)C)c1nc2ccccc2o1`, for which the GI50 in the experiment on SK-MEL-28 is 36.5 µM (inactive); in the experiment with KM12, 33.3 µM (inactive); with NCI-H23, 34.9 µM (inactive); in the experiment with SNB-19, 64 µM (inactive); in the experiment on CCRF-CEM, 16.3 µM (inactive); in the experiment with 786-0, 24.6 µM (inactive). Besides, the GI50 was 33.3 µM (inactive) with MDA-MB-435; 31.9 µM (inactive) in the experiment on SNB-75; 49.7 µM (inactive) with SW-620; 34 µM (inactive) with SF-295; 27.4 µM (inactive) in the experiment on LOX IMVI; 35.7 µM (inactive) with Malme-3M. Also, the GI50 was 43.4 µM (inactive) in the experiment with DU-145, 26.7 µM (inactive) in the experiment with BT-549, 60.4 µM (inactive) in the experiment with CAKI-1 and 37.8 µM (inactive) in the experiment with SF-268.

`Cc1cc(Cl)ccc1N1C(=O)C(=O)C(c2nc3ccccc3s2)C(=O)C1=O`: the GI50 in the experiment with SK-MEL-28, with KM12, in the experiment with NCI-H23, with SNB-19, with CCRF-CEM and in the experiment with 786-0 was > 100 µM (inactive) in each case. Further, the GI50 in the experiment with SNB-75, in the experiment on SW-620, in the experiment with SF-295, in the experiment with Malme-3M, with U-251 and in the experiment with CAKI-1 was > 100 µM (inactive) in each case. The GI50 in the experiment on SF-268 is > 100 µM (inactive).

On to `CC(=O)OC(/C=C/c1ccccc1)=C(OC(C)C)/C1=C(\c2ccccc2)SCCCSC1=O`, for which the GI50 was > 100 µM (inactive) with SK-MEL-28; > 100 µM (inactive) in the experiment with KM12; > 100 µM (inactive) with NCI-H23; > 100 µM (inactive) in the experiment on SNB-19; 91 µM (inactive) with CCRF-CEM; > 100 µM (inactive) in the experiment with 786-0. Further, the GI50 with MDA-MB-435 was > 100 µM (inactive); with SNB-75 it was 52.6 µM (inactive); in the experiment on SW-620, > 100 µM (inactive); with SF-295, 56.8 µM (inactive); in the experiment with LOX IMVI, > 100 µM (inactive); with Malme-3M, > 100 µM (inactive). In addition, the GI50 in the experiment on DU-145 is > 100 µM (inactive); with BT-549 it was 44.6 µM (inactive); in the experiment with U-251, > 100 µM (inactive); with HCC 2998, > 100 µM (inactive); in the experiment with CAKI-1 it was > 100 µM (inactive); in the experiment on SF-268, > 100 µM (inactive).

These data come from ChEMBL document CHEMBL1201862, “PubChem BioAssay data set” (2004).
